The text below walks through data of patent US20200316159A1, “SUSTAINED RELEASE COMPOSITIONS OF KAPPA-OPIOID RECEPTOR AGONIST” (JT PHARMACEUTICALS, INC., priority 2016, published 2020).

Series [1] has as its system peripheral pain (acetic acid-induced writhing). The experiment in a line: Acetic acid-induced writhing model (Example 1). In kind it is in vivo, rat (male Sprague-Dawley). On the procedure:
Acetic Acid-Induced Writhing Model.
This protocol is a well-established model of peripheral pain. Following oral or i.v. administration of compound, rats are rested for 20 min before i.p. injection with 2 ml/kg of 3% acetic acid. Animals are then rested an additional 10 min before being placed in a 10×10 inch chamber. A video of the rats is then recorded for next 20 min. The video is subsequently blindly scored by an investigator who examines each rat every 20 sec for the entire 20 min (60 individual observations). At each observation rats are scored on whether they are writhing or not. Writhing is defined as a constriction of the abdominal area, often with extension of the hind legs. At the end of the experiment the percent of the time the animal was writhing was calculated. The dose-response curves and EC50 values were generated using GraphPad Prism®.
As an initial biological screen the potential for oral availability of the 18 peptides in our library were evaluated in a well-established model of peripheral pain, the acetic acid-induced writhing assay. Rats were administered the various compounds by oral gavage at a screening dose of 20 mg/kg 20 min before i.p. injection with 2 ml/kg of 3% acetic acid. 10 min later animals were assessed for writhing as indicated in the methods section. […] Thus, several of the Arg modifications can impart CR665 with the ability to cross the gut barrier. Compounds 3, 7, 9, 11 and 17 were selected for further analysis.

Series [2] concerns sedation (distance traveled). The experiment in a line: Locomotor open field test. As for the experimental part:
Locomotor Open Field Test.
Sedation and a loss of muscle coordination are common CNS-mediated side effects of opioids. To assess the sedative effects of JT09, rats were given JT09 (20 mg/kg, p.o.) or morphine (10 mg/kg, i.p.) 20 min before placement in an automated (68 l×21 w×21 h cm) activity chambers for a 30 min test. Morphine was used as a comparison group due to its well-known sedative effects.

Series [3] can be described thus: Maximum tolerated dose determination. In kind it is in vivo, rat. To be noted: p.o., six rats per dose level, observed 4 days. On the procedure:
Maximum Tolerated Dose Determination.
In order to determine the maximum dose of JT09 that can be tolerated, its dose level was increased until the maximum tolerated dose (MTD) was identified or, if MTD dose was not reached, the maximum-administered dose (MAD). […] Six rats were included at each dose level (50, 70, and 90 mg/kg, p.o.). The animals were observed twice daily; body weights and detailed clinical observations for behavioral toxicity (porphyrin staining, changes in activity levels, changes in grooming habits, convulsions, catalepsy, muscular rigidity, and excessive vocalization) were made daily for 4 days after dosing at each level. Doses were chosen based on the compound's ED50 for analgesic potency.

In series [4] the test system is abuse liability (lever pressing for intravenous drug delivery). Description: Self-administration model. In kind it is in vivo, rat. An excerpt: Self-Administration Model.
Addiction/dependence is a critical side effect of opioids and must be evaluated with any new member of this family. The most reliable test of abuse liability with the most translational relevance is a contingent drug self-administration model, in which rats are trained to press a lever for intravenous drug delivery. Sixteen standard self-administration chambers (30×20×20 cm, Med Associates) were housed inside sound-attenuating cubicles fitted with a fan for airflow and to mask noise. Each chamber contained two retractable levers, two stimulus lights, a speaker for tone delivery, and a house light to provide general illumination. In addition, each chamber was equipped with a balanced metal arm and spring leash attached to a swivel (Instech). Tygon® tubing extended through the leash and was connected to a 10 ml syringe mounted on an infusion pump located outside the sound-attenuating cubicle. Rats were anesthetized with i.p. injections of ketamine (66 mg/kg; Vedcolnc, St Joseph, Mo., USA), xylazine (1.3 mg/kg; Lloyd Laboratories, Shenandoah, Iowa, USA), and equithesin (0.5 ml/kg); sodium pentobarbital (4 mg/kg), chloral hydrate (17 mg/kg), and 21.3 mg/kg magnesium sulfate heptahydrate dissolved in 44% propylene glycol, 10% ethanol solution). Ketorolac (2.0 mg/kg, i.p. Sigma, St. Louis, Mo., USA) was given just prior to surgery as an analgesic. One end of a silastic catheter was inserted 33 mm into the external right jugular and secured with 4.0 silk sutures. The other end ran subcutaneously and exited from a small incision just below the scapula. This end is attached to an infusion harness (Instech Solomon, Plymouth Meeting, Pa., USA) that provides access to an external port for IV drug delivery. […]
During self-administration, rats received an IV infusion (0.1 ml) of 10 U/ml heparinized saline before each session. […] Cocaine was chosen for comparison purposes because it is readily self-administered.

Series [5] in a line: Multiple dose study (14 days). The series is classed as in vivo, rat. To be noted: 30 mg/kg oral daily for 14 days. From the text: Tolerance to the analgesic effects of the lead compounds was be assessed using the acetic acid-induced writhing assay (described above). Daily clinical observations for behavioral toxicity (described above) were made during the course of the experiment and body weight and food consumption recorded on study days 3, 5, 7, 9, 11 and 13. On day 15, animals were sacrificed in their home cages by carbon dioxide inhalation from a compressed gas tank. A gross necroscopic analysis was immediately performed following euthanasia.

For series [6], the system named is rewarding properties (compartment preference). The experiment in a line: Conditioned place preference. In kind it is in vivo, rat. The note with it: 20 mg/kg p.o., alternate treatment over eight days; listed as JT09. As for the experimental part:
Conditioned Place Preference.
To test whether JT09 was able to condition appetitive behaviors, we used a conditioned place procedure. On day one, rats were habituated to a three-compartment apparatus for 10 min. One compartment was black with a grid floor and the other white with a rod floor. A smaller center compartment was gray with a solid floor. The amount of time spent in each compartment was recorded. The side in which the rats spent the least amount of time on habituation day was paired with JT09, in that rats receive the compound via oral gavage immediately before compartment placement. On alternating days, rats were treated with saline and confined in the opposite compartment. Rats were confined to each compartment for 25 minutes. Test rats were orally gavaged with saline and given access to the entire apparatus for 10 minutes. The amount of time spent in each compartment was recorded.

“Also recorded” adds a separate entry of the source.

Consider `CCCC[C@@H](NC(=O)[C@@H](Cc1ccccc1)NC(=O)[C@H](N)Cc1ccccc1)C(=O)N[C@H](CCCCN(C)C)C(=O)NCc1ccncc1` [Compound 9], for which the “EC50, i.v. dose response in writhing assay” value in series [1] (i.v.) amounted to 0.032 mg/kg. Moreover, the “EC50, oral dose-response in acetic acid writhing model” value in series [1] (oral) is listed as 4.7 mg/kg. Further, the “locomotor activity (distance traveled) versus saline” value in series [2] (20 mg/kg p.o., 30 min test) is reported as “statistically indistinguishable”. The “locomotor activity relative to morphine” value in series [2] (JT09 20 mg/kg p.o. versus morphine 10 mg/kg i.p., time bins 1, 2 and 5) was “higher locomotor activity”. Also, in series [2] (JT09 20 mg/kg p.o., morphine 10 mg/kg i.p.), the “sedation in locomotor test” value was “showed no sedation”. The “maximum administered dose (MAD) without mortality, loss of more than 10% body weight or overt signs of toxicity” value in series [3] was 90 mg/kg. Further, the “lever responding in operant self-administration” value in series [4] (IV infusion 20 mg/kg/inf, 2-hr sessions, five-day period, n=8) is “failed to maintain lever responding”. In series [4] (JT09 IV, days 2-5 compared to day one), the “number of infusions in self-administration” value is “decreased on all 4 days”. In series [5], the “tolerance (negative CNS-mediated effects associated with morphine)” value is reported as “does not promote”. For the same compound, in series [5] (six rats), the “gross necropsy: heart, stomach, intestines, liver, spleen, pancreas, kidneys, adrenal glands, skeletal muscle, bone, reproductive organs, brain” value is reported as “grossly normal”. Also, the “gross necropsy: lungs” value in series [5] (attributed to CO2 euthanasia hemorrhage) is given as “slight grey discoloration”. Further, the “conditioned place preference for drug-paired compartment over saline” value in series [6] is listed as “did not develop a preference; also recorded: had no effect on compartment placement”.
